Measurements from ChEMBL document CHEMBL4145497, “Discovery of 2-aminothiazolyl berberine derivatives as effectively antibacterial agents toward clinically drug-resistant Gram-negative Acinetobacter baumanii” (Eur J Med Chem, 2018).
In brackets after ≈: the same amount, converted by molar mass.

How the values were obtained:
Type in all cases: functional
[1] = test system: Staphylococcus aureus; assay: Antibacterial activity against Staphylococcus aureus ATCC 25923 after 18 to 24 hrs by CLSI two fold serial dilution method
[2] = test system: Bacillus subtilis; assay: Antibacterial activity against Bacillus subtilis ATCC 21216 after 18 to 24 hrs by CLSI two fold serial dilution method
[3] = test system: Micrococcus luteus; assay: Antibacterial activity against Micrococcus luteus ATCC 4698 after 18 to 24 hrs by CLSI two fold serial dilution method
[4] = test system: Escherichia coli; assay: Antibacterial activity against Escherichia coli DH52 after 18 to 24 hrs by CLSI two fold serial dilution method
[5] = test system: Pseudomonas aeruginosa; assay: Antibacterial activity against Pseudomonas aeruginosa ATCC 27853 after 18 to 24 hrs by CLSI two fold serial dilution method
[6] = test system: Candida albicans; assay: Antifungal activity against Candida albicans ATCC 76615 by CLSI two fold serial dilution method
[7] = test system: Cyberlindnera jadinii; assay: Antifungal activity against Candida utilis ATCC 9950 by CLSI two fold serial dilution method; details: Williopsis jadinii
[8] = test system: Pichia norvegensis; assay: Antifungal activity against Candida mycoderma ATCC 96918 by CLSI two fold serial dilution method
[9] = test system: Aspergillus flavus; assay: Antifungal activity against Aspergillus flavus ATCC 204304 by CLSI two fold serial dilution method
[10] = test system: Saccharomyces cerevisiae; assay: Antifungal activity against Saccharomyces cerevisiae ATCC 9763 by CLSI two fold serial dilution method
[11] = test system: Candida parapsilosis; assay: Antifungal activity against Candida parapsilosis ATCC 22019 by CLSI two fold serial dilution method; details: Lodderomyces parapsilosis
[12] = test system: Staphylococcus aureus; assay: Antibacterial activity against methicillin-resistant Staphylococcus aureus N315 after 18 to 24 hrs by CLSI two fold serial dilution method
[13] = test system: Enterococcus faecalis; assay: Antibacterial activity against drug-resistant Enterococcus faecalis after 18 to 24 hrs by CLSI two fold serial dilution method
[14] = test system: Escherichia coli; assay: Antibacterial activity against drug-resistant Escherichia coli after 18 to 24 hrs by CLSI two fold serial dilution method
[15] = test system: Pseudomonas aeruginosa; assay: Antibacterial activity against drug-resistant Pseudomonas aeruginosa after 18 to 24 hrs by CLSI two fold serial dilution method
[16] = test system: Klebsiella pneumoniae; assay: Antibacterial activity against drug-resistant Klebsiella pneumoniae after 18 to 24 hrs by CLSI two fold serial dilution method
[17] = test system: Acinetobacter baumannii; assay: Antibacterial activity against drug-resistant Acinetobacter baumannii after 18 to 24 hrs by CLSI two fold serial dilution method
[18] = test system: Candida albicans; assay: Antifungal activity against drug-resistant Candida albicans by CLSI two fold serial dilution method
[19] = test system: Candida tropicalis; assay: Antifungal activity against drug-resistant Candida tropicalis by CLSI two fold serial dilution method
[20] = test system: Aspergillus fumigatus; assay: Antifungal activity against drug-resistant Aspergillus fumigatus by CLSI two fold serial dilution method

Row | SMILES | MIC [1] [µM] | MIC [2] [µM] | MIC [3] [µM] | MIC [4] [µM] | MIC [5] [µM] | MIC [6] [µM] | MIC [7] [µM] | MIC [8] [µM] | MIC [9] [µM] | MIC [10] [µM] | MIC [11] [µM] | MIC [12] [µM] | MIC [13] [µM] | MIC [14] [µM] | MIC [15] [µM] | MIC [16] [µM] | MIC [17] [µM] | MIC [18] [µM] | MIC [19] [µM] | MIC [20] [µM]
1 | CCCCCCCCOc1c(OC)cc(/C=N/Nc2nccs2)c2c1CN1CCc3cc4c(cc3C1C2)OCO4 (stereo not drawn) | 230 (≈ 129 µg/mL) | 450 (≈ 253 µg/mL) | 450 (≈ 253 µg/mL) | 450 (≈ 253 µg/mL) | 230 (≈ 129 µg/mL) | 230 (≈ 129 µg/mL) | 460 (≈ 259 µg/mL) | 460 (≈ 259 µg/mL) | 460 (≈ 259 µg/mL) | 460 (≈ 259 µg/mL) | 230 (≈ 129 µg/mL) |  |  |  |  |  |  |  |  | 
2 | COc1cc(/C=N/NC(N)=S)c2c(c1OCC#N)CN1CCc3cc4c(cc3C1C2)OCO4 (stereo not drawn) | 280 (≈ 130 µg/mL) | 550 (≈ 256 µg/mL) | 280 (≈ 130 µg/mL) | 280 (≈ 130 µg/mL) | 280 (≈ 130 µg/mL) | 280 (≈ 130 µg/mL) | 280 (≈ 130 µg/mL) | 550 (≈ 256 µg/mL) | 280 (≈ 130 µg/mL) | 280 (≈ 130 µg/mL) | 280 (≈ 130 µg/mL) | 280 (≈ 130 µg/mL) | 280 (≈ 130 µg/mL) | 280 (≈ 130 µg/mL) | 280 (≈ 130 µg/mL) | 550 (≈ 256 µg/mL) | 280 (≈ 130 µg/mL) | 280 (≈ 130 µg/mL) | 280 (≈ 130 µg/mL) | 70 (≈ 32.6 µg/mL)
3 | COc1cc(/C=N/NC(N)=S)c2c(c1OCc1ccc(Cl)cc1Cl)CN1CCc3cc4c(cc3C1C2)OCO4 (stereo not drawn) | 110 (≈ 64.4 µg/mL) | 220 (≈ 129 µg/mL) | 110 (≈ 64.4 µg/mL) | 440 (≈ 258 µg/mL) | 220 (≈ 129 µg/mL) | 110 (≈ 64.4 µg/mL) | 440 (≈ 258 µg/mL) | 220 (≈ 129 µg/mL) | 440 (≈ 258 µg/mL) | 880 (≈ 515 µg/mL) | 10 (≈ 5.86 µg/mL) | 110 (≈ 64.4 µg/mL) | 440 (≈ 258 µg/mL) | 440 (≈ 258 µg/mL) | 220 (≈ 129 µg/mL) | 220 (≈ 129 µg/mL) | 3 (≈ 1.76 µg/mL) | 110 (≈ 64.4 µg/mL) | 220 (≈ 129 µg/mL) | 110 (≈ 64.4 µg/mL)
4 | CCOc1c(OC)cc(/C=N/NC(N)=S)c2c1CN1CCc3cc4c(cc3C1C2)OCO4 (stereo not drawn) | 70 (≈ 31.8 µg/mL) | 280 (≈ 127 µg/mL) | 140 (≈ 63.6 µg/mL) | 280 (≈ 127 µg/mL) | 70 (≈ 31.8 µg/mL) | 140 (≈ 63.6 µg/mL) | 280 (≈ 127 µg/mL) | 280 (≈ 127 µg/mL) | 560 (≈ 255 µg/mL) | 280 (≈ 127 µg/mL) | 70 (≈ 31.8 µg/mL) | 140 (≈ 63.6 µg/mL) | 140 (≈ 63.6 µg/mL) | 280 (≈ 127 µg/mL) | 70 (≈ 31.8 µg/mL) | 280 (≈ 127 µg/mL) | 140 (≈ 63.6 µg/mL) | 140 (≈ 63.6 µg/mL) | 280 (≈ 127 µg/mL) | 140 (≈ 63.6 µg/mL)
5 | CCn1cc(C(=O)O)c(=O)c2cc(F)c(N3CCNCC3)cc21 [NORFLOXACIN] | 2 (≈ 0.639 µg/mL) | 3 (≈ 0.958 µg/mL) | 6 (≈ 1.92 µg/mL) | 50 (≈ 16 µg/mL) | 50 (≈ 16 µg/mL) |  |  |  |  |  |  | 30 (≈ 9.58 µg/mL) | 800 (≈ 255 µg/mL) | 1600 (≈ 511 µg/mL) | 1600 (≈ 511 µg/mL) | 800 (≈ 255 µg/mL) | 800 (≈ 255 µg/mL) |  |  | 
6 | COc1cc(/C=N/NC(N)=S)c2c(c1OCc1ccc(F)cc1)CN1CCc3cc4c(cc3C1C2)OCO4 (stereo not drawn) | 120 (≈ 64.2 µg/mL) | 480 (≈ 257 µg/mL) | 480 (≈ 257 µg/mL) | 240 (≈ 128 µg/mL) | 240 (≈ 128 µg/mL) | 120 (≈ 64.2 µg/mL) | 480 (≈ 257 µg/mL) | 240 (≈ 128 µg/mL) | 480 (≈ 257 µg/mL) | 240 (≈ 128 µg/mL) | 60 (≈ 32.1 µg/mL) | 120 (≈ 64.2 µg/mL) | 120 (≈ 64.2 µg/mL) | 240 (≈ 128 µg/mL) | 240 (≈ 128 µg/mL) | 480 (≈ 257 µg/mL) | 8 (≈ 4.28 µg/mL) | 120 (≈ 64.2 µg/mL) | 120 (≈ 64.2 µg/mL) | 120 (≈ 64.2 µg/mL)
7 | CCCCCCCCCCCCOc1c(OC)cc(/C=N/Nc2nccs2)c2c1CN1CCc3cc4c(cc3C1C2)OCO4 (stereo not drawn) | 210 (≈ 130 µg/mL) | 30 (≈ 18.6 µg/mL) | 830 (≈ 514 µg/mL) | 210 (≈ 130 µg/mL) | 410 (≈ 254 µg/mL) | 410 (≈ 254 µg/mL) | 410 (≈ 254 µg/mL) | 50 (≈ 30.9 µg/mL) | 410 (≈ 254 µg/mL) | 830 (≈ 514 µg/mL) | 30 (≈ 18.6 µg/mL) |  |  |  |  |  |  |  |  | 
8 | C#CCOc1c(OC)cc(/C=N/Nc2nccs2)c2c1CN1CCc3cc4c(cc3C1C2)OCO4 (stereo not drawn) | 130 (≈ 63.5 µg/mL) | 520 (≈ 254 µg/mL) | 520 (≈ 254 µg/mL) | 130 (≈ 63.5 µg/mL) | 130 (≈ 63.5 µg/mL) | 260 (≈ 127 µg/mL) | 260 (≈ 127 µg/mL) | 1050 (≈ 513 µg/mL) | 1050 (≈ 513 µg/mL) | 1050 (≈ 513 µg/mL) | 130 (≈ 63.5 µg/mL) |  |  |  |  |  |  |  |  | 
9 | OC(Cn1cncn1)(Cn1cncn1)c1ccc(F)cc1F [FLUCONAZOLE] |  |  |  |  |  | 3 (≈ 0.919 µg/mL) | 30 (≈ 9.19 µg/mL) | 10 (≈ 3.06 µg/mL) | 840 (≈ 257 µg/mL) | 50 (≈ 15.3 µg/mL) | 7 (≈ 2.14 µg/mL) |  |  |  |  |  |  | 10 (≈ 3.06 µg/mL) | 30 (≈ 9.19 µg/mL) | 840 (≈ 257 µg/mL)
